Laboratory results taken from ChEMBL document CHEMBL2062496, “Identification of a sirtuin 3 inhibitor that displays selectivity over sirtuin 1 and 2” (Eur J Med Chem, 2012).

What was measured:
UO-31 = assay: Growth of human UO31 cells assessed as cell growth at 10 uM after 48 hrs by MTT assay; conditions: UO-31, 48 h
HOP-92 = assay: Growth of human HOP92 cells assessed as cell growth at 10 uM after 48 hrs by MTT assay; conditions: HOP-92, 48 h
SNB-75 = assay: Growth of human SNB75 cells assessed as cell growth at 10 uM after 48 hrs by MTT assay; conditions: SNB-75, 48 h
CCRF-CEM = assay: Growth of human CCRF-CEM cells assessed as cell growth at 10 uM after 48 hrs by MTT assay
NCI-H226 = assay: Growth of human NCI-H226 cells assessed as cell growth at 10 uM after 48 hrs by MTT assay; conditions: NCI-H226, 48 h
A549 = assay: Growth of human A549/ATCC cells assessed as cell growth at 10 uM after 48 hrs by MTT assay; conditions: A549, 48 h
MDA-MB-468 = assay: Growth of human MDA-MB-468 cells assessed as cell growth at 10 uM after 48 hrs by MTT assay; conditions: MDA-MB-468, 48 h
SR = assay: Growth inhibition of human SR cells assessed as cell growth at 10 uM after 48 hrs by MTT assay; values are per cent of control
M14 = assay: Growth inhibition of human M14 cells assessed as cell growth at 10 uM after 48 hrs by MTT assay; values are per cent of control; conditions: M14, 48 h
K562 = assay: Growth inhibition of human K562 cells assessed as cell growth at 10 uM after 48 hrs by MTT assay; values are per cent of control; conditions: K562, 48 h
U-251 = assay: Growth inhibition of human U251 cells assessed as cell growth at 10 uM after 48 hrs by MTT assay; values are per cent of control; conditions: U-251, 48 h
A498 = assay: Growth inhibition of human A498 cells assessed as cell growth at 10 uM after 48 hrs by MTT assay; values are per cent of control; conditions: A498, 48 h
TK-10 = assay: Growth inhibition of human TK10 cells assessed as cell growth at 10 uM after 48 hrs by MTT assay; values are per cent of control; conditions: TK-10, 48 h
T47D = assay: Growth inhibition of human T47D cells assessed as cell growth at 10 uM after 48 hrs by MTT assay; values are per cent of control
HCT-15 = assay: Growth inhibition of human HCT15 cells assessed as cell growth at 10 uM after 48 hrs by MTT assay; values are per cent of control; conditions: HCT-15, 48 h
SF-268 = assay: Growth inhibition of human SF268 cells assessed as cell growth at 10 uM after 48 hrs by MTT assay; values are per cent of control; conditions: SF-268, 48 h
SF-539 = assay: Growth inhibition of human SF539 cells assessed as cell growth at 10 uM after 48 hrs by MTT assay; values are per cent of control; conditions: SF-539, 48 h
SNB-19 = assay: Growth inhibition of human SNB19 cells assessed as cell growth at 10 uM after 48 hrs by MTT assay; values are per cent of control; conditions: SNB-19, 48 h
DU-145 = assay: Growth inhibition of human DU145 cells assessed as cell growth at 10 uM after 48 hrs by MTT assay; values are per cent of control; conditions: DU-145, 48 h
SK-OV-3 = assay: Growth inhibition of human SKOV3 cells assessed as cell growth at 10 uM after 48 hrs by MTT assay; values are per cent of control; conditions: SK-OV-3, 48 h
786-0 = assay: Growth inhibition of human 786-0 cells assessed as cell growth at 10 uM after 48 hrs by MTT assay; values are per cent of control; conditions: 786-0, 48 h
SN12C = assay: Growth inhibition of human SN12C cells assessed as cell growth at 10 uM after 48 hrs by MTT assay; values are per cent of control
UACC-62 = assay: Growth inhibition of human UACC62 cells assessed as cell growth at 10 uM after 48 hrs by MTT assay; values are per cent of control; conditions: UACC-62, 48 h
IGROV-1 = assay: Growth inhibition of human IGROV1 cells assessed as cell growth at 10 uM after 48 hrs by MTT assay; values are per cent of control; conditions: IGROV-1, 48 h
OVCAR-3 = assay: Growth inhibition of human OVCAR3 cells assessed as cell growth at 10 uM after 48 hrs by MTT assay; values are per cent of control; conditions: OVCAR-3, 48 h
OVCAR-5 = assay: Growth inhibition of human OVCAR5 cells assessed as cell growth at 10 uM after 48 hrs by MTT assay; values are per cent of control; conditions: OVCAR-5, 48 h
NCI-H522 = assay: Growth inhibition of human NCI-H522 cells assessed as cell growth at 10 uM after 48 hrs by MTT assay; values are per cent of control; conditions: NCI-H522, 48 h
Malme-3M = assay: Growth inhibition of human MALME-3M cells assessed as cell growth at 10 uM after 48 hrs by MTT assay; values are per cent of control
SK-MEL-2 = assay: Growth inhibition of human SK-MEL-2 cells assessed as cell growth at 10 uM after 48 hrs by MTT assay; values are per cent of control; conditions: SK-MEL-2, 48 h
SK-MEL-5 = assay: Growth inhibition of human SK-MEL-5 cells assessed as cell growth at 10 uM after 48 hrs by MTT assay; values are per cent of control; conditions: SK-MEL-5, 48 h

c1cncc(-c2cnn[nH]2)c1
growth, % of control at 10 µM (UO-31): 76% | growth, % of control at 10 µM (HOP-92): 80.8% | growth, % of control at 10 µM (SNB-75): 93% | growth, % of control at 10 µM (CCRF-CEM): 24.8% | growth, % of control at 10 µM (NCI-H226): 80.6% | growth, % of control at 10 µM (A549): 101% | growth, % of control at 10 µM (MDA-MB-468): 104% | growth, % of control at 10 µM (SR): 97.3% | growth, % of control at 10 µM (M14): 72.5% | growth, % of control at 10 µM (K562): 75.2% | growth, % of control at 10 µM (U-251): 111% | growth, % of control at 10 µM (A498): 105% | growth, % of control at 10 µM (TK-10): 103% | growth, % of control at 10 µM (T47D): 102% | growth, % of control at 10 µM (HCT-15): 69.2% | growth, % of control at 10 µM (SF-268): 113% | growth, % of control at 10 µM (SF-539): 106% | growth, % of control at 10 µM (SNB-19): 102% | growth, % of control at 10 µM (DU-145): 96.3% | growth, % of control at 10 µM (SK-OV-3): 48% | growth, % of control at 10 µM (786-0): 104% | growth, % of control at 10 µM (SN12C): 102% | growth, % of control at 10 µM (UACC-62): 90.7% | growth, % of control at 10 µM (IGROV-1): 113% | growth, % of control at 10 µM (OVCAR-3): 89.5% | growth, % of control at 10 µM (OVCAR-5): 100% | growth, % of control at 10 µM (NCI-H522): 101% | growth, % of control at 10 µM (Malme-3M): 99% | growth, % of control at 10 µM (SK-MEL-2): 109% | growth, % of control at 10 µM (SK-MEL-5): 103%
